The values below come from patent publication US20240190821A1, “SULFONAMIDE SUBSTITUTED N-(1H-INDOL-7-YL)BENZENESULFONAMIDES AND USES THEREOF” (Triana Biomedicines, Inc., priority 2021, published 2024).

Structures are written as SMILES. pEC50, pIC50: −log10 of the molar value.

A word on the pIC50: it is the IC50 on a negative log10 scale, so that one unit is a factor of ten. The term pEC50 denotes −log10 of the EC50, conventionally taken in molar units.

The target of one assay is DCAF15 (Homo sapiens, UniProt Q66K64). Put plainly: Binary interaction between compounds and DCAF15, HTRF competition assay. The class given is binding. The conditions noted are these: HTRF competition with Alexa Fluor 647 tracer, His-tagged DCAF15 complex; read-out: DCAF15 IC50. The procedure: DCAF15 interactions with test compounds were monitored using HTRF competition assays (Cisbio, Bedford, MA). […] These two solutions were mixed and incubated for 15 min at room temperature. 9.8 ul of the tracer solution and 10 ul of the DCAF15/mAb Anti-6His-Eu cryptate Gold mixture were added sequentially to each well in the assay plate. Reaction mixtures with no DCAF15 added were included as […] controls. […] Binding was estimated based on ratiometric analysis and titration curves were generated in GraphPad Prism (7.00, GraphPad, La Jolla, CA).

Assay [1] addresses T1, DCAF15-RBM39 ternary complex (Homo sapiens, UniProt Q14498+Q66K64).
T1 construct: (RRM2)
The experiment in a line: Compound-induced DCAF15-RBM39 ternary complex formation, AlphaLISA. The class given is biochemical. The conditions noted are these: AlphaLISA, His-tagged DCAF15 complex and biotin-carrying RBM39; read-out: Ternary-RBM39 (RRM2) EC50. As for the experimental part:
Compound-induced DCAF15-RBM39 ternary complex formation was monitored using AlphaLISA® assays (Perkin Elmer, Waltham, MA). […] 9.8 ul of this protein mixture was then mixed with the compounds in the assay plate and incubated for one hour at room temperature. Reaction mixtures with no compounds added were included as negative controls, while a His-tagged and biotinylated GST protein was included to track general assay performance. […] The beads were then added to the assay plate sequentially with incubation at room temperature for 1-2 hours after each addition.

Sequence of DCAF15 (Q66K64 whole entry): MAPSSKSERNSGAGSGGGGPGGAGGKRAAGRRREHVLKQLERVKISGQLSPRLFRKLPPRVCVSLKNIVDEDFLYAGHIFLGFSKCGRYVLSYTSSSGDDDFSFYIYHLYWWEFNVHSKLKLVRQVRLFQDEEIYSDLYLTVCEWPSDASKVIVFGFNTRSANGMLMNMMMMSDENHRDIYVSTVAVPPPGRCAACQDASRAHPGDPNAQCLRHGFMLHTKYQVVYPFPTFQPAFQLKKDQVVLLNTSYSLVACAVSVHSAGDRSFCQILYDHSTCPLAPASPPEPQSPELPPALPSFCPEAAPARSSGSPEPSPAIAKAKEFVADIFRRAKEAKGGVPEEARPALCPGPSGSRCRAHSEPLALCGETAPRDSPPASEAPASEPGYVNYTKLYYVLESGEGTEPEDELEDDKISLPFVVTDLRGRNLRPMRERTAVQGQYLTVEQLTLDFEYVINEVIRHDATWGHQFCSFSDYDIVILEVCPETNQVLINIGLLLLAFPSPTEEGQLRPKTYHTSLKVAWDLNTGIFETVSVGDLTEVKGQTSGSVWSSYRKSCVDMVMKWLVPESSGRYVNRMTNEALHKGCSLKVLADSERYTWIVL
Sequence of DCAF15 (Q16531 whole entry partner): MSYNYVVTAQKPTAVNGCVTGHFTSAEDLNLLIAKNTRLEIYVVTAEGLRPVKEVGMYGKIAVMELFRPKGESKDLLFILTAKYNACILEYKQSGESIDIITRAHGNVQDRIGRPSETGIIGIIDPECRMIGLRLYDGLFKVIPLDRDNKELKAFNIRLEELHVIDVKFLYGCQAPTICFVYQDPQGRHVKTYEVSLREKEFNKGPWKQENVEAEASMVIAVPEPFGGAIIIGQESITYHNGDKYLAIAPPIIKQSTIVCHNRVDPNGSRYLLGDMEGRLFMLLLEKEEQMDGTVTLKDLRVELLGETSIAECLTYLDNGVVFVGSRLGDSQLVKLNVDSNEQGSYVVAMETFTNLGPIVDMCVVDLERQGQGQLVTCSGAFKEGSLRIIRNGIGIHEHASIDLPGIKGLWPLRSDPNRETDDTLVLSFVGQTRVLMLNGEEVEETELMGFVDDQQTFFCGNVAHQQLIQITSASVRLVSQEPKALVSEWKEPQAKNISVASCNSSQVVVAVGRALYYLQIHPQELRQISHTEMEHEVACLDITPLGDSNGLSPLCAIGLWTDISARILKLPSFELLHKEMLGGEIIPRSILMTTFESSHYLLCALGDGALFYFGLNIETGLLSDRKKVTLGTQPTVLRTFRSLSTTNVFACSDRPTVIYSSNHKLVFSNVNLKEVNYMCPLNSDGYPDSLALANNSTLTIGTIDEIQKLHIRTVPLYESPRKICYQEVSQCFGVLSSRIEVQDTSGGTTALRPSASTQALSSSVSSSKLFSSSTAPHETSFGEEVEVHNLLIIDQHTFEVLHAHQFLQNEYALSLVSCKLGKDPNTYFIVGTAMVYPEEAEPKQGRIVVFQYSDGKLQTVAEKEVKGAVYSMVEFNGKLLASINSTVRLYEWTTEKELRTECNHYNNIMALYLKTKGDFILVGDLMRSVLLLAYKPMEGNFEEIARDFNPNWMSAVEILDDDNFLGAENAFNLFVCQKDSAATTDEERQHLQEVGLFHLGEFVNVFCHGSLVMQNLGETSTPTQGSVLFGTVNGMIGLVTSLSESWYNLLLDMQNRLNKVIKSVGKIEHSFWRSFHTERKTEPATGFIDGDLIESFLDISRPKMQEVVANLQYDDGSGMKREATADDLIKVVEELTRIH
T1 sequence (Q66K64 whole entry): as the sequence (Q66K64 whole entry) above
T1 sequence (Q14498 250-328 limits assumed): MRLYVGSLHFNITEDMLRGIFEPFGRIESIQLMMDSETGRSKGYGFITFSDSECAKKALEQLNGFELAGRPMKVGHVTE
T1 sequence (Q16531 whole entry partner): as the sequence (Q16531 whole entry partner) above

Regarding `CC1CN(S(=O)(=O)c2ccc(S(=O)(=O)Nc3ccc(Cl)c4c(Cl)c[nH]c34)cc2)CCN1` (centres unmarked) [compound 109], the negative logarithm of the IC50 (pIC50) at DCAF15 was above 5.30. Moreover, the negative logarithm of the EC50 (pEC50) in assay [1] is above 6.00.

`CCCN(c1ccc(S(=O)(=O)Nc2ccc(Cl)c3c(Cl)c[nH]c23)cc1)S(=O)(=O)N1CCNCC1` [Compound 67, N-(4-(N-(3,4-dichloro-1H-indol-7-yl)sulfamoyl)phenyl)-N-propylpiperazine-1-sulfonamide]: the negative logarithm of the IC50 (pIC50) on DCAF15 is above 5.30. The pEC50 in assay [1] is above 6.00.

On to `O=S(=O)(Nc1ccc(Cl)c2c(Cl)c[nH]c12)c1ccc(S(=O)(=O)N2CCC(O)CC2)cc1` [Compound 38, N-(3,4-dichloro-1H-indol-7-yl)-4-((4-hydroxypiperidin-1-yl)sulfonyl)benzene sulfonamide], for which the pIC50 at DCAF15 was above 5.30. The pEC50 in assay [1] was above 6.00.

For the compound `CN(C)C(=O)CC(NS(=O)(=O)c1ccc(S(=O)(=O)Nc2ccc(Cl)c3c(Cl)c[nH]c23)cc1)c1ccccc1` (centres unmarked) [Compound 11, 3-((4-(N-(3,4-dichloro-1H-indol-7-yl)sulfamoyl)phenyl)sulfonamido)-N,N-dimethyl-3-phenylpropanamide], the pIC50 at DCAF15 is above 5.30. The negative logarithm of the EC50 (pEC50) in assay [1] is above 4.70.

Take `CCN=S(=O)(c1ccc(S(=O)(=O)Nc2ccc(Cl)c3c(Cl)c[nH]c23)cc1)C1CCNCC1` (centres unmarked) [Compound 68, N-(3,4-dichloro-1H-indol-7-yl)-4-(N-ethylpiperidine-4-sulfonimidoyl)benzenesulfonamide]: at DCAF15, the negative logarithm of the IC50 (pIC50) is above 5.30. Moreover, the pEC50 in assay [1] was above 6.00.

Take `Cc1ccnc(C(NS(=O)(=O)c2ccc(S(=O)(=O)Nc3ccc(Cl)c4c(Cl)c[nH]c34)cc2)C2CC2)c1` (centres unmarked) [Compound 18, N^1-(cyclopropyl(4-methylpyridin-2-yl)methyl)-N^4-(3,4-dichloro-1H-indol-7-yl)benzene-1,4-disulfonamide]: the negative-log IC50 (pIC50) on DCAF15 is above 4.70. Besides, the negative-log EC50 (pEC50) in assay [1] is above 5.30.

On to `O=S(=O)(NCCCOCc1ccccc1)c1ccc(S(=O)(=O)Nc2ccc(Cl)c3c(Cl)c[nH]c23)cc1` [Compound 5, N^1-(3-(benzyloxy)propyl)-N^4-(3,4-dichloro-1H-indol-7-yl)benzene-1,4-disulfonamide], for which the pIC50 on DCAF15 is above 4.00. Also, the pEC50 in assay [1] is above 4.70.

With `COCCOCCCNS(=O)(=O)c1ccc(S(=O)(=O)Nc2ccc(Cl)c3c(Cl)c[nH]c23)cc1` [Compound 7, N^1-(3,4-dichloro-1H-indol-7-yl)-N^4-(3-(2-methoxyethoxy)propyl)benzene-1,4-disulfonamide], the pIC50 on DCAF15 was above 4.70. Besides, the pEC50 in assay [1] was above 5.30.

With `Cc1cnc(CNS(=O)(=O)c2ccc(S(=O)(=O)Nc3ccc(Cl)c4c(Cl)c[nH]c34)cc2)cn1` [Compound 19, N^1-(3,4-dichloro-1H-indol-7-yl)-N4_ ((5-methylpyrazin-2-yl)methyl)benzene-1,4-disulfonamide], the pIC50 on DCAF15 is above 5.30. In addition, the pEC50 in assay [1] was above 6.00.

Regarding `O=C1CCC(NS(=O)(=O)c2ccc(S(=O)(=O)Nc3ccc(Cl)c4c(Cl)c[nH]c34)cc2)CN1` (centres unmarked) [Compound 31, N^1-(3,4-dichloro-1H-indol-7-yl)-N^4-(6-oxopiperidin-3-yl)benzene-1,4-disulfonamide], on DCAF15, the pIC50 is above 5.30. The pEC50 in assay [1] was above 6.00.

In the case of `CN(C)C(=O)c1ccc(CCNS(=O)(=O)c2ccc(S(=O)(=O)Nc3ccc(Cl)c4c(Cl)c[nH]c34)cc2)cc1` [Compound 23, 4-(2-((4-(N-(3,4-dichloro-1H-indol-7-yl)sulfamoyl)pheny 1)sulfonamido)ethyl)-N,N-dimethylbenzamide], at DCAF15, the pIC50 was above 4.70. For the same compound, the pEC50 in assay [1] was above 5.30.

`Cc1ccc(CCNS(=O)(=O)c2ccc(S(=O)(=O)Nc3ccc(Cl)c4c(Cl)c[nH]c34)cc2)o1` [Compound 25, N^1-(3,4-dichloro-1H-indol-7-yl)-N4_ (2-(5-methylfuran-2-yl)ethyl)benzene-1,4-disulfonamide]: at DCAF15, the negative logarithm of the IC50 (pIC50) is above 4.70. Further, the pEC50 in assay [1] is above 4.70.

Take `CC(C)(C)OC(=O)N1CCC2(CC1)CN(S(=O)(=O)c1ccc(S(=O)(=O)Nc3ccc(Cl)c4c(Cl)c[nH]c34)cc1)CCO2` [Compound 55, tert-butyl 4-((4-(N-(3,4-dichloro-1H-indol-7-yl)sulfamoyl)phenyl)sulfonyl)-1-oxa-4,9-diazaspiro[5.5] undecane-9-carboxylate]: on DCAF15, the negative logarithm of the IC50 (pIC50) was above 4.70. Besides, the pEC50 in assay [1] is above 5.30.

As for `N#Cc1cc(S(=O)(=O)Nc2ccc(Cl)c3c(Cl)c[nH]c23)ccc1S(=O)(=O)N1CCNCC1` [Compound 43, 3-cyano-N-(3,4-dichloro-1H-indol-7-yl)-4-(piperazin-1-ylsulfonyl)benzenesulfonamide], the pIC50 at DCAF15 is above 5.30. For the same compound, the pEC50 in assay [1] was above 6.00.

As to `Cn1cc(-c2ccc(S(=O)(=O)Nc3ccc(Cl)c4c(Cl)c[nH]c34)cc2)cn1` [Compound 61, N-(3,4-dichloro-1H-indol-7-yl)-4-(1-methyl-1H-pyrazol-4-yl)benzenesulfonamide], at DCAF15, the pIC50 is above 5.30. Further, the pEC50 in assay [1] was above 5.30.

`CN1CCC(S(=O)(=O)Nc2ccc(S(=O)(=O)Nc3ccc(Cl)c4c(Cl)c[nH]c34)cc2)CC1` [Compound 64, N-(4-(N-(3,4-dichloro-1H-indol-7-yl)sulfamoyl)phenyl)-1-methylpiperidine-4-sulfonamide]: the negative-log IC50 (pIC50) on DCAF15 is above 4.00. In assay [1], the pEC50 is above 5.30.

On to `Cc1ccc(NS(=O)(=O)c2ccc(S(=O)(=O)N3CCC(N(C)C)C3)cc2)c2[nH]cc(C#N)c12` (centres unmarked) [Compound 80, N-(3-cyano-4-methyl-1H-indol-7-yl)-4-((3-(dimethylamino)pyrrolidine-1-yl)sulfonyl)benzenesulfonamide], for which the negative-log IC50 (pIC50) at DCAF15 was above 4.70. The pEC50 in assay [1] was above 6.00.

Regarding `N#Cc1ccc(NS(=O)(=O)c2ccc(S(=O)(=O)N3CCNCC3)cc2)c2[nH]cc(Cl)c12` [Compound 88, N-(3-chloro-4-cyano-1H-indol-7-yl)-4-(piperazin-1-ylsulfonyl)benzenesulfonamide], the negative-log IC50 (pIC50) at DCAF15 is above 4.70. The pEC50 in assay [1] is above 6.00.

For the compound `Cc1nc2c(n1C)CCN(S(=O)(=O)c1ccc(S(=O)(=O)Nc3ccc(Cl)c4c(Cl)c[nH]c34)cc1)C2` [Compound 53, N-(3,4-dichloro-1H-indol-7-yl)-4-((1,2-dimethyl-1,4,6,7-tetrahydro-5H-imidazo[4,5-c]pyridin-5-yl)sulfonyl)benzene sulfonamide], the pIC50 at DCAF15 is above 5.30. For the same compound, the pEC50 in assay [1] is above 5.30.

As to `O=C1NCCCCC1NS(=O)(=O)c1ccc(S(=O)(=O)Nc2ccc(Cl)c3c(Cl)c[nH]c23)cc1` (centres unmarked) [Compound 33, N^1-(3,4-dichloro-1H-indol-7-yl)-N^4-(2-oxoazepan-3-yl)benzene-1,4-disulfonamide], on DCAF15, the negative logarithm of the IC50 (pIC50) was above 5.30. Further, the negative logarithm of the EC50 (pEC50) in assay [1] is above 6.00.

On to `CCCN(c1ccc(S(=O)(=O)Nc2ccc(Cl)c3c(Cl)c[nH]c23)cc1)S(=O)(=O)N1CCN(C)CC1` [Compound 66, N-(4-(N-(3,4-dichloro-1H-indol-7-yl)sulfamoyl)phenyl)-4-methyl-N-propylpiperazine-1-sulfonamide], for which, at DCAF15, the negative logarithm of the IC50 (pIC50) was above 5.30. Moreover, the pEC50 in assay [1] was above 6.00.

With `Cc1ccc(NS(=O)(=O)c2ccc(S(=O)(=O)N(C)C3CCNCC3)cc2)c2[nH]cc(C#N)c12` [Compound 78, N^1-(3-cyano-4-methyl-1H-indol-7-yl)-N^4-methyl-N^4-(piperidin-4-yl) benzene-1,4-disulfonamide], the negative logarithm of the IC50 (pIC50) on DCAF15 was above 5.30. Moreover, the negative logarithm of the EC50 (pEC50) in assay [1] was above 6.00.

For `COc1cccc(Oc2ccc(CNS(=O)(=O)c3ccc(S(=O)(=O)Nc4ccc(Cl)c5c(Cl)c[nH]c45)cc3)cn2)c1` [Compound 17, N^1-(3,4-dichloro-1H-indol-7-yl)-N^4-((6-(3-methoxyphenoxy)pyridin-3-yl)methyl)benzene-1,4-disulfonamide], on DCAF15, the pIC50 is above 4.70. The pEC50 in assay [1] is above 4.70.

Take `CCN=S(=O)(c1ccc(S(=O)(=O)Nc2ccc(Cl)c3c(Cl)c[nH]c23)cc1)N1CCNCC1` (centres unmarked) [Compound 69, N-(3,4-dichloro-1H-indol-7-yl)-4-(N-ethylpiperazine-1-sulfonimidoyl)benzenesulfonamide]: at DCAF15, the pIC50 is above 4.00. In addition, in assay [1], the pEC50 was above 6.00.

On to `CCCC1CNCCN1S(=O)(=O)c1ccc(S(=O)(=O)Nc2ccc(Cl)c3c(Cl)c[nH]c23)cc1` (centres unmarked) [Compound 47, N-(3,4-dichloro-1H-indol-7-yl)-4-((2-propylpiperazin-1-yl)sulfonyl)benzenesulfonamide], for which, on DCAF15, the pIC50 is above 5.30. The negative logarithm of the EC50 (pEC50) in assay [1] was above 6.00.

As to `CN1CCC(S(=O)(=O)c2ccc(S(=O)(=O)Nc3ccc(Cl)c4c(Cl)c[nH]c34)cc2)CC1` [Compound 58, N-(3,4-dichloro-1H-indol-7-yl)-4-((1-methylpiperidin-4-yl)sulfonyl)benzene sulfonamide], the pIC50 at DCAF15 is above 5.30. Besides, the pEC50 in assay [1] was above 6.00.

In the case of `CCCN(C(C)=O)c1ccc(S(=O)(=O)Nc2ccc(Cl)c3c(Cl)c[nH]c23)cc1` [Compound 71, N-(4-(N-(3,4-dichloro-1H-indol-7-yl)sulfamoyl)phenyl)-N-propylacetamide], the negative-log IC50 (pIC50) on DCAF15 was above 5.30. Moreover, the pEC50 in assay [1] is above 6.00.

On to `O=C(CCCNS(=O)(=O)c1ccc(S(=O)(=O)Nc2ccc(Cl)c3c(Cl)c[nH]c23)cc1)N1CCCC1` [Compound 27, N^1-(3,4-dichloro-1H-indol-7-yl)-N^4-(4-oxo-4-(pyrrolidin-1-yl)butyl)benzene-1,4-disulfonamide], for which, at DCAF15, the negative logarithm of the IC50 (pIC50) was above 5.30. Besides, the pEC50 in assay [1] was above 6.00.
